Assay results as given in patent US11617814B2, “Methods of treatment comprising administering polymer particles configured for intravascular delivery of pharmaceutical agents” (TERUMO CORPORATION, priority 2016, dated 2023).

Tests used:
[1] = In vivo elution: systemic concentration of oxaliplatin in plasma after embolization, LC/MS/MS; parameters: species or system pig
Method: Blood samples were obtained to determine the systemic concentration of oxaliplatin before embolization as well as 20, 40, 60, 120 and 180 minutes post-embolization. An additional blood sample was collected at sacrifice, which was at day 6 or day 7. Plasma was prepared by centrifugation and the samples were frozen at −80° C. until analysis.
Quantitation was done via LC/MS/MS using an Agilent 1260 Infinity HPLC system coupled with ABSciex 4000 Q Trap LC/MS/MS system. Chromatographic separation was performed using an Agilent Poroshell 120 C18 column (4.6 mm×50 mm, 2.7 μm) at 50° C. and mobile phase consisting of A: 0.1% formic acid in acetonitrile and B: 0.1% formic acid in water. At a flow rate of 500 μL/min, the chromatographic gradient was 0% buffer A from 0.0-2.5 min, 0-90% from 2.5-2.6 min, 90% from 2.6-4.1 min, 90-0% from 4.1-4.2 min, and 0% from 4.2-10.0 min. The divert valve was open from 1.4-2.7 min and 3.4-4.6 min. The plasma samples were purified by ultracentrifugation first and then solid phase extraction. Plasma sample, 500 μL, was loaded onto a 30K Nanosep Centrifuge Device and centrifuged to collect the plasma ultra-filtrate. The centrifugation was performed at 4° C., starting at 8,000 rcf for 30 mins, 9,000 rcf for 30 mins, and 10,000 rcf for 15 mins with an increment of 1,000 rcf every 15 mins until 13,000 rcf for 2 hrs and 15 mins. The collected plasma ultra-filtrate was diluted with 1:1 (v/v) ratio of acetonitrile containing 500 ppb of the internal standard, carboplatin. The mixture, 600 μL, was loaded onto a 1 mL HybridSPE-Phospholipid cartridge, which was placed in a 15 mL conical centrifuge tube and centrifuged at 4° C. at 1,000 rcf for 5 mins and then 4,000 rcf for 5 mins. The sample collected in the centrifuge tube was then transferred to an HPLC vial for analysis. Injection of 50 μL of the sample was performed. The calibration curve was prepared by spiking the blank plasma ultra-filtrate to a range from 5-2000 ppb. The systemic concentration of oxalipatin in plasma over time is illustrated in FIG. 3.

[2] = Solubility of SN-38 in water, observed in the elution extract; assay type: physicochemical; details: yellow precipitate formed in the extract solution
Method: The kinetics of SN-38 elution from the preloaded particles is illustrated in FIG. 1. The theoretical amount of SN-38 tethered on the particles is 15 mg for 100 mg of particles assuming no loss of the drug during the preparation of the particles. Upon immersion in PBS, SN-38 was eluted slowly over a period of time. On day 8, there was approximately 3% of SN-38 eluted. The elution curve obtained is fairly close to a linear line over the period of 8 days with a steady daily release between 3-5% of loaded SN-38 indicating controlled release of SN-38 is achieved with the preloaded particles. The total amount of SN-38 eluted during the first 8 days was 34% of the theoretical amount.

[3] = In vivo elution: systemic concentration of SN-38 in plasma after embolization, LC/MS/MS
Method: Blood samples were obtained to determine the systemic concentration of SN-38 before embolization as well as 20, 40, 60, 120 and 180 minutes post-embolization. An additional blood sample was collected at sacrifice, which was at day 6. Plasma was prepared by centrifugation and the samples were frozen at −80° C. until analysis.
Quantitation was done via liquid chromatography-tandem mass spectrometry (LC/MS/MS) using an Agilent 1260 Infinity HPLC system coupled with ABSciex 4000 Q Trap LC/MS/MS system. Chromatographic separation was performed using an Agilent Poroshell 120 C18 column (4.6 mm×50 mm, 2.7 μm) at 25° C. and mobile phases consisting of A: 0.1% formic acid in acetonitrile and B: 0.1% formic acid in water. At a flow rate of 1.0 mL/min, the chromatographic gradient was 27% buffer A from 0.0-0.3 min, 27-52% from 0.3-2.5 min, 52-80% from 2.5-2.6 min, 80% from 2.6-2.7 min, 80-27% from 2.7-2.8 min, 27% from 2.9-4.0 min. The plasma samples were precipitated with 3 fold excess (v/v) of acetonitrile containing 50 ppb of the internal standard, camptothecin. After being vortexed and centrifuged at 13,000 rpm at 4° C. for 10 minutes, 200 μL of the supernatant of each sample was diluted with 600 μL of 0.1% formic acid in water. Injection of 100 μL of the diluted sample was performed. The calibration curve was prepared by spiking blank plasma to a range from 2.5-500 ppb for SN-38. […]

Row | Compound | systemic concentration of oxaliplatin in plasma ([1]; each time point: pre-embolization, 20, 40, 60, 120, 180 min post-embolization and day 6 or 7, plasma ultra-filtrate, calibration 5-2000 ppb) | systemic concentration of oxaliplatin at day 6 ([1]; one sample pig, day 6) | time of highest systemic concentration of oxaliplatin ([1]; post embolization, one sample pig) | solubility of SN-38 in water [2] | systemic concentration of SN-38 in plasma ([3]; each time point: pre-embolization, 20, 40, 60, 120, 180 min post-embolization and day 6, calibration 2.5-500 ppb) | time of highest systemic concentration of SN-38 ([3]; post embolization, plasma)
1 | O=C1[O][Pt]2([NH][C@@H]3CCCC[C@H]3[NH]2)[O]C1=O [oxaliplatin] | lower than the lower limit of quantitation | close to pre-embolization | 3 h |  |  | 
2 | CCc1c2c(nc3ccc(O)cc13)-c1cc3c(c(=O)n1C2)COC(=O)[C@]3(O)CC [SN-38, 7-ethyl-10-hydroxy-camptothecin] |  |  |  | poor solubility | lower than the lower limit of quantitation | 3 h
